Assay [1] concerns microtubule cytoskeleton of human CG neuroblastoma cells. Kind of assay: Antimicrotubule activity, tubulin immunofluorescence microscopy. The class given is cell-based. The conditions noted are these: 2 hr at 37° C., read-out: Concentration where microtubule destabilization occurs. How it is done: The compounds of the invention according to formula I are effective in destabilizing microtubules, thus are useful in treating certain neoplastic diseases. Indirect immunofluorescence microscopy using the monoclonal antibodies to tubulin is used herein to determine the activity of the compounds of this invention in promoting depolymerization of the microtubule cytoskeleton in cultured cells. The following assay was employed.
Cultured human CG neuroblastoma cells were seeded 1:3 from confluent cultures onto sterile 11×22 mm coverslips in 6 well tissue culture plates 16 hr prior to treatment. The following day, the tissue culture medium is removed and the cells are exposed to various concentrations of compounds of this invention in Krebs Ringer Hepes (KRH) buffer containing a final concentration of 0.5% DMSO as carrier. Incubations were performed at 37° C. in a humidified 5% CO2 atmosphere for 2 hr. After incubation, the cells were fixed in 3% TEM grade formaldehyde in PBS for 45 min at room temperature.
To visualize the effects of the compounds of the invention on the microtubule cytoskeleton, the cells were processed for tubulin immunofluorescence. Briefly, the cells were permeabilized in 0.5% Triton-X 100 in PBS for 5 min. The cells were washed 2× with PBS and aldehydes reduced using 0.5 mg/ml NaBH4 in PBS for 5 min. Subsequently, the cells were blocked for 10 min in 1.5% BSA and 1.5% nonfat dry milk in PBS (blocking solution, BS) for 10 min. The cells were then incubated for 30 min at 37° C. with the monoclonal antibody Tu27B which recognizes b-tubulin (dilution 1:20 in BS). Subsequently, the cells were washed 2× in PBS and once in BS. The cells were then incubated for 30 min at 37° C. with sheep antimouse IgG conjugated to FITC. After incubation, the cells were washed 2× in PBS and once in BS and incubated for 30 min at 37° C. with rabbit antisheep IgG conjugated to FITC. The cells were rinsed in PBS, counterstained with Hoechst 33285 in PBS (1 μg/ml), and rinsed in PBS. The coverslips were mounted in 9:1 glycerol:PBS containing 1 mg/ml p-phenylenediamine and sealed with nail polish.
The cells were viewed using a Jenalumar epifluorescence microscope equipped with the proper filters for Fluorescein Isothiocyanate (FITC) excitation and emission. Lack of effect of a compound is evidenced by the presence of an intact microtubule network in interphase cells, or a mitotic spindle in dividing cells. Antineoplastic compounds of the invention at effective doses result in the disappearance of microtubules in both interphase and mitotic cells.

A further assay has as its system Candida albicans SRI 523. Briefly: Agar disc diffusion assay. The class given is cell-based. The conditions noted are these: 240 ug/disc, about 24 hr at 37° C. How it is done: (§1) The activity of the compounds is determined using the following assay. The compound is dissolved in DMSO at a concentration of 6 mg/ml and then diluted with water to a final concentration of 3 mg/ml in 50% DMSO (% DMSO was shown not to be inhibitory to the test organisms). An aliquot (0.08 ml) of each drug solution was transferred to filter paper discs (12.7 mm diameter, Scmeicherand Schuell) for use in the agar diffusion assay. The concentration of each drug on the filter paper disc was 240 ug/disc. The test organisms included the following: Gram-positive aerobes (Staphylococcus aureus SRI 1323, Streptococcus pneumoniae SRI 1167); Gram-negative aerobe (Proteus vulgaris SRI 180); and the yeast Candida albicans SRI 523. An agar disc diffusion assay was used to evaluate the antimicrobial activity of the test compounds. Briefly, cultures were prepared from 16-20 hr agar slant cultures by inoculating in physiological saline to a turbidity equivalent to a #0.5 McFarland turbidity standard for the bacteria and a #3 McFarland standard for C. albicans. The surface of Mueller-Hinton agar (15×100 mm plates, mm) were evenly inoculated with each standardized culture using a cotton swab. Filter paper discs containing the drug concentration listed above were then placed on the inoculated agar plates along with a disc containing the solvent used to dissolve each drug. The plates were incubated at 37° C. for about 24 hr and the diameters of the zones of inhibition measured with a vernier caliper. Positive control drugs consisted of streptomycin for use with the bacterial strains and 5-fluorocytosine for use with C. albicans. The positive control drugs were assayed as described above for the compounds of the present invention using the same concentration.
(In general: In agar diffusion tests the substance spreads into inoculated agar from a disc or well.)

The test system of assay [2] is Streptococcus pneumoniae SRI 1167. Briefly: Agar disc diffusion assay. The class given is cell-based. Conditions: 240 ug/disc, about 24 hr at 37° C., + = zone too large to measure. How it is done: as §1
In assay [3] the test system is Staphylococcus aureus SRI 1323. Briefly: Agar disc diffusion assay. Format: cell-based. The conditions noted are these: 240 ug/disc, about 24 hr at 37° C. How it is done:
as §1

Another assay relates to Proteus vulgaris SRI 180. Briefly: Agar disc diffusion assay. The class given is cell-based. The conditions noted are these: 240 ug/disc, about 24 hr at 37° C., 0 = no measurable zone. How it is done:
as §1

For assay [4], the system named is TG3 immunoreactivity in OKA treated MSN1a cells. Briefly: MSN1a cell culture model, ELISA with TG3 antibody, okadaic acid treated cells. Conditions: Homo sapiens, 1 μM OKA, 2 hrs at 37° C., read-out: IC50 for inhibition of TG3 immunoreactivity in OKA treated MSN1a cells. Format: cell-based, human. Put shortly: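 Human MSN1a neuroblastoma cells (2×10^4/well) in KRH pH 7.4 were exposed 2 h at 37 °C to 1 μM okadaic acid plus 0–64 μM compound (0.26% DMSO final). Lysates were coated onto ELISA plates and probed with TG3 and an alkaline phosphatase secondary. Absorbance was read at 405 nm with p-nitrophenyl phosphate substrate.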
(In an ELISA, binding on a coated surface is turned into a signal by an enzyme label.)

In assay [5] the test system is paired helical filament epitopes in MSN1a cells. Briefly: Western blot of PHF-1 immunoreactivity in lysates of MSN1a cells. The class given is cell-based, human. Conditions: 100 μM chlorpromazine, 2 hours at 37° C. How it is done:
These compounds are effective at micromolar concentrations, with increased potency being evident when cells are treated prior to the addition of okadaic acid. The effective concentrations appear to be in the range at which these drugs are present in the brain following chronic treatment of psychiatric patients (Svendsen, C N, Psychopharnacology, 90, 316-321, 1986). […] The cells were isolated by centrifugation, boiled for 10 minutes and […] protein from the resulting heat stable supernatants were loaded per lane on an SDS-PAGE gel. The gel was electrophoretically transferred to nitrocellulose membrane and then immnunostained with PHF-1. […] The use of the MSN1a cell culture model for screening of novel compounds for therapeutic activity in AD is, therefore, quite warranted.
(In general: A western blot detects proteins with antibodies after separation by electrophoresis.)

In assay [6] the test system is PHF epitope levels in human brain tissue. Kind of assay: Retrospective study of autopsy brain tissue of chronically treated patients, ALZ-EIA method. Format: in vivo. Conditions: frontal (Broadman area 10) and temporal (Broadman area 38) regions, FIGS. 4A and 4B. How it is done:
Frontal and cortical brain tissue specimens obtained at autopsy from patients chronically treated with chlorpromazine were analyzed using the ALZ-EIA method previously described (Ghanbari, H A, et al, JAMA, 263, 2907, 1990). […] The brain tissue (post-mortem) from approximately the same number of (age matched) normal controls and Alzheimer's Disease patients were also analyzed and are presented in these figures as negative and positive controls (for normal and AD, respectively). […] Bick, K L. Raven Press, New York, 1994).

Assay [7] deals with PHF epitopes in human brain tissue. Briefly: Retrospective study of autopsy brain tissue of chronically treated patients, direct ELISA using TG3 antibody. The class given is in vivo. Conditions: N 51, sum of absorbance readings for 8 dilutions. An excerpt: In a subsequent study, 51 additional patients were identified and the analysis was repeated as above using the TG3 antibody in an ELISA format.

SMILES strings stand for the structures. Where a name gives a salt, the structure may show the parent alone.

Experimental findings from US20010025105A1, “Certain substituted 1-aryl-3-piperazine-1'-yl propanones” (Molecular Geriatarics Corporation, priority 1997, published 2001) are described below.

On to `Cl.Cl.O=C(CCN1CCN(Cc2ccccc2)CC1)c1ccc([N+](=O)[O-])cc1` [Example 5], for which the minimal effective concentration in assay [1] was determined as 4 µM. Moreover, the “Diameter of the zone of inhibition, C. albicans” value in the assay on Candida albicans SRI 523 amounted to 17.6 mm. Further, the “Diameter of the zone of inhibition, S. pneumoniae” value in [2] turned out to be 29.9 mm. Besides, the “Diameter of the zone of inhibition, S. aureus” value in assay [3] was determined as 22.8 mm. Besides, the “Diameter of the zone of inhibition, P. vulgaris” value in the assay with Proteus vulgaris SRI 180 was 17.3 mm.

`O=C(CCN1CCN(Cc2ccccc2)CC1)c1nccs1` [Example 76, 1-(2-Thiazolyl)-3-(4′-benzyl-1′-piperazinyl)-1-propanone dihydrochloride]: the zone of inhibition (in general, the extent of the growth-free halo in a diffusion test) at 240 µg/disc came out at 20.9 mm with Candida albicans SRI 523 (Candida albicans, SRI523, read-out: Diameter of the zone of inhibition, C. albicans); 35.5 mm in assay [2] (Streptococcus pneumoniae, SRI1167, read-out: Diameter of the zone of inhibition, S. pneumoniae); 19.3 mm in assay [3] (Staphylococcus aureus, SRI1323, read-out: Diameter of the zone of inhibition, S. aureus); 20.5 mm in the assay with Proteus vulgaris SRI 180 (Proteus vulgaris, SRI180, read-out: Diameter of the zone of inhibition, P. vulgaris). Moreover, the IC50 (as a rule, the midpoint of a concentration-inhibition curve) in assay [4] was found to be 10.5 µM.

Regarding `CN(C)CCCN1c2ccccc2Sc2ccc(Cl)cc21` [Chlorpromazine, chlorpromazine], the “production of paired helical filament epitopes (PHF-1 immunoreactivity, western blot)” value is “markedly inhibit the expression of PHF epitopes” in assay [5] (FIG. 3) and “greatly decreased the production of paired helical filament epitopes” in assay [5] (FIG. 3, listed as CPZ). Further, the IC50 in assay [4] was about 70 µM. Moreover, in assay [6], the “PHF epitope levels (ALZ-EIA)” value is “low PHF epitope levels similar to normal controls”. The “SIGNAL ± SEM Frontal” value in [7] (post-mortem frontal brain tissue) was 0.12 ± 0.11. The “SIGNAL ± SEM Temporal” value in [7] (post-mortem temporal brain tissue) turned out to be 0.16 ± 0.11.
